Experimental data published in the NIST ThermoML archive (doi:10.1021/je020220n).
“And” between values parts separate entries of the source, which are not always exact repeats. Equal values may be shown once.

Settings: Crystal

[Br][Er]([Br])[Br] [erbium bromide (ErBr3)]
Settings	vapor or sublimation pressure
919 K	2.82e-05 kPa
930 K	4.17e-05 kPa and 7.08e-05 kPa
941 K	7.08e-05 kPa
942 K	8.91e-05 kPa and 0.0001122 kPa
948 K	9.77e-05 kPa
952 K	0.000123 kPa
954 K	0.0001413 kPa
956 K	0.000182 kPa
959 K	0.0001413 kPa
961 K	0.0001995 kPa
962 K	0.0001778 kPa
964 K	0.000195 kPa
966 K	0.0001995 kPa
968 K	0.000182 kPa
970 K	0.0002692 kPa and 0.0002455 kPa
971 K	0.0002951 kPa
973 K	0.0002692 kPa
977 K	0.0003467 kPa
979 K	0.0003311 kPa and 0.0002818 kPa
982 K	0.0003631 kPa
984 K	0.0004898 kPa
988 K	0.0004786 kPa
989 K	0.0004677 kPa
990 K	0.0004898 kPa
993 K	0.0005623 kPa and 0.0004169 kPa
998 K	0.000631 kPa and 0.0006166 kPa and 0.0007943 kPa
1004 K	0.0009333 kPa
1007 K	0.0008318 kPa
1008 K	0.0006761 kPa and 0.0008511 kPa
1009 K	0.000871 kPa
1010 K	0.0009772 kPa
1015 K	0.001349 kPa
1018 K	0.001148 kPa and 0.001122 kPa
1020 K	0.001 kPa
1025 K	0.001698 kPa and 0.001445 kPa
1026 K	0.001514 kPa
1028 K	0.002089 kPa
1033 K	0.002138 kPa and 0.001585 kPa
1036 K	0.002042 kPa and 0.00257 kPa and 0.002089 kPa
1045 K	0.002951 kPa and 0.002818 kPa
1051 K	0.003631 kPa
1056 K	0.00389 kPa
1058 K	0.004365 kPa

[I][Er]([I])[I] [erbium iodide]
Settings	vapor or sublimation pressure
871 K	5.37e-05 kPa
873 K	5.37e-05 kPa
876 K	8.51e-05 kPa
884 K	0.0001072 kPa
886 K	7.94e-05 kPa and 0.0001047 kPa and 5.75e-05 kPa
889 K	9.33e-05 kPa
890 K	0.0001047 kPa
891 K	0.0001479 kPa
897 K	0.0001349 kPa
898 K	0.0001349 kPa and 0.0001905 kPa
903 K	0.0001622 kPa and 0.0002089 kPa
904 K	0.0002344 kPa and 0.0002089 kPa
906 K	0.0001995 kPa
907 K	0.0001288 kPa
912 K	0.0002138 kPa and 0.0003162 kPa
913 K	0.0002692 kPa and 0.000302 kPa
915 K	0.0002344 kPa
916 K	0.0001738 kPa
918 K	0.0002951 kPa and 0.0004074 kPa
923 K	0.0004169 kPa
924 K	0.0005129 kPa and 0.0003388 kPa
928 K	0.0002754 kPa
929 K	0.0003715 kPa
930 K	0.000631 kPa and 0.000537 kPa and 0.0005754 kPa
932 K	0.0004169 kPa
934 K	0.0002884 kPa
936 K	0.0006166 kPa and 0.0008318 kPa
937 K	0.0003631 kPa
939 K	0.0007586 kPa
940 K	0.0005623 kPa and 0.000537 kPa and 0.0007586 kPa
943 K	0.001071 kPa
945 K	0.0004786 kPa
946 K	0.0005129 kPa
947 K	0.0007413 kPa
948 K	0.000955 kPa
949 K	0.001349 kPa and 0.001023 kPa and 0.001047 kPa
950 K	0.0007762 kPa
952 K	0.000537 kPa
955 K	0.0006457 kPa
956 K	0.001698 kPa
957 K	0.0009772 kPa
958 K	0.001445 kPa
959 K	0.00123 kPa
961 K	0.0007413 kPa
962 K	0.001698 kPa
963 K	0.001698 kPa and 0.001202 kPa and 0.0008913 kPa
966 K	0.00195 kPa and 0.001023 kPa
968 K	0.00257 kPa
969 K	0.001514 kPa
971 K	0.001906 kPa
972 K	0.00123 kPa
973 K	0.002455 kPa
974 K	0.003162 kPa and 0.00257 kPa and 0.001175 kPa
976 K	0.002042 kPa
978 K	0.002884 kPa
979 K	0.002951 kPa
980 K	0.003802 kPa and 0.001622 kPa
981 K	0.001778 kPa
982 K	0.002512 kPa
983 K	0.003388 kPa
984 K	0.003548 kPa
986 K	0.003236 kPa
987 K	0.00182 kPa
988 K	0.002089 kPa
989 K	0.004266 kPa
990 K	0.003236 kPa
992 K	0.004266 kPa and 0.004467 kPa
994 K	0.004786 kPa
995 K	0.002951 kPa
996 K	0.002754 kPa
997 K	0.004169 kPa
999 K	0.004786 kPa and 0.005754 kPa
1001 K	0.00631 kPa and 0.002884 kPa
1004 K	0.006457 kPa and 0.005129 kPa
1006 K	0.006918 kPa
1007 K	0.007079 kPa
1008 K	0.004677 kPa and 0.00389 kPa
1010 K	0.007943 kPa
1011 K	0.008318 kPa
1012 K	0.006761 kPa
1015 K	0.004571 kPa
1016 K	0.005129 kPa
1017 K	0.01 kPa
1018 K	0.008128 kPa
1019 K	0.01047 kPa
1026 K	0.01318 kPa
1030 K	0.006918 kPa
1036 K	0.01778 kPa
1045 K	0.01023 kPa
1046 K	0.02455 kPa
1059 K	0.03548 kPa
1070 K	0.04898 kPa
1082 K	0.06918 kPa
